Patent publication US7851641B2, “Compounds useful for treating neurodegenerative disorders” (Satori Pharmaceuticals, Inc., priority 2005, dated 2010)

Columns and labels:
amyloid-β (1-42) peptide [1] = assay: IP-MS quantification of amyloid-β peptides in 7W cells (APPwt) and 7PA2 cells (APPV717F); type: cell-based; conditions: FIG. 22
Procedure: (§1) Compounds of the present invention were assayed to determine their effect on the total ration of amyloid-β (1-42) peptide in vitro using an assay protocol substantially similar to that described by Wang et al, J. Biol. Chem. 1996, 50:31894-31902, The Profile of Soluble Amyloid β Protein in Cultured Cell Media, the entirety of which is hereby incorporated herein by reference. This assay quantifies amyloid-β protein using immunoprecipitation and mass spectrometry (IP-MS).
Compound 6 was also assayed according to the method described in Wang et al, in 7W cells (APPwt) and 7PA2 cells (APPV717F). The APP717 mutations increase the relative amount of amyloid-β (1-42) peptide. In this assay, it was shown that compound 6 reduces amyloid-β (1-42) peptide while increasing amyloid-β (1-39) peptide.

amyloid-β (1-42) peptide [2] = assay: IP-MS quantification of amyloid-β peptides (Wang et al protocol); type: cell-based; conditions: in vitro, FIG. 21
Procedure: as §1

CC(=O)O[C@@H]([C@H]1C[C@@H](C)C2=C(O1)[C@H](O)[C@@]1(C)[C@@H]3CC[C@H]4C(C)(C)[C@@H](O[C@@H]5OC[C@@H](O)[C@H](O)[C@H]5O)CC[C@@]45C[C@@]35CC[C@]21C)C(C)(C)O [Compound 6, 24-O-Acetylhydroshengmanol 3-β-D-xylopyranoside (delta-16,17)-enol ether]
effect on amyloid-β (1-39) peptide (amyloid-β (1-42) peptide [1]): increasing | effect on amyloid-β (1-42) peptide (amyloid-β (1-42) peptide [1]): reduces | effect on amyloid-β (1-37) peptide (amyloid-β (1-42) peptide [2]): increasing | effect on amyloid-β (1-39) peptide (amyloid-β (1-42) peptide [2]): increasing | effect on amyloid-β (1-42) peptide (amyloid-β (1-42) peptide [2]): reduced
